The record followed here is ChEMBL document CHEMBL5380808, “Design, Synthesis, and Biological Activity of Marinacarboline Analogues as STAT3 Pathway Inhibitors for Docetaxel-Resistant Triple-Negative Breast Cancer” (J Med Chem, 2023).

In one series the test system is MDA-MB-231. Description: Antiproliferative activity against human MDA-MB-231 cells assessed as reduction in cell viability incubated for 72 hrs by sulforhodamine B assay. Format: functional, cell-based. As to conditions: MDA-MB-231, 72 h. On the technique in general: The SRB assay estimates cell density from bound dye.
The nature of series [1]: Cytotoxicity against human MRC5 cells assessed as reduction in cell viability incubated for 72 hrs by sulforhodamine B assay. Format: toxicity, cell-based.
Series [2] can be described thus: Selectivity index, ratio of IC50 for cytotoxicity against human MRC5 cells to IC50 for antiproliferative activity against human MDA-MB-231 cells. Format: toxicity, cell-based. The note with it: MRC5 cells and MDA-MB-231 cells, read-out: Ratio IC50.

Bounds are passed on as bounds.

As a reminder, the IC50 is the point on the concentration scale where inhibition reaches its midpoint.

On to `COC(=O)c1cc2c([nH]c3ccccc32)c(C(C)=O)n1`, for which the IC50 in the series on MDA-MB-231 is over 50 µM. Also, in series [1], the IC50 at 72 h is over 50 µM.
Take `CCCC(=O)c1nc(C(=O)NCCc2c[nH]c3ccccc23)cc2c1[nH]c1ccccc12`: the IC50 in the series on MDA-MB-231 was over 50 µM. Also, the IC50 at 72 h in series [1] is over 50 µM.
On to `O=C(NCCc1c[nH]c2ccccc12)c1cc2c([nH]c3ccccc32)c(C(=O)c2ccccc2)n1`, for which, in the series on MDA-MB-231, the IC50 stood at 21.2 µM. Further, in series [2], the selectivity ratio was found to be 1.5. In addition, the IC50 at 72 h in series [1] was found to be 31.9 µM.
For `O=C(NCCc1c[nH]c2ccccc12)c1cc2c([nH]c3ccccc32)c(-c2ccccc2)n1`, in the series on MDA-MB-231, the IC50 was determined as 19.2 µM. Moreover, in series [2], the selectivity ratio was over 2.6. The IC50 at 72 h in series [1] is over 50 µM.
Turning to `CC(=O)c1nc(C(=O)NCCCN(C)C)cc2c1[nH]c1ccccc12`, the IC50 in the series with MDA-MB-231 is 11.3 µM. In addition, the selectivity ratio in series [2] is over 4.41. In addition, in series [1], the IC50 at 72 h is over 50 µM.
As to `O=C(NCc1ccc(O)cc1)c1cc2c([nH]c3ccccc32)c(C(=O)c2ccc(O)cc2)n1`, the IC50 in the series on MDA-MB-231 was over 50 µM. In addition, the IC50 at 72 h in series [1] was over 50 µM.
Regarding `CC(=O)c1nc(C(=O)N(Cc2ccccc2)Cc2ccccc2)cc2c1[nH]c1ccccc12`, the IC50 with MDA-MB-231 amounted to 20.8 µM. Further, the selectivity ratio in series [2] was over 2.4. In addition, the IC50 at 72 h in series [1] is over 50 µM.
For the molecule `O=C(NCc1ccc(O)cc1)c1cc2c([nH]c3ccccc32)c(C(=O)c2ccc(Br)cc2)n1`, the IC50 with MDA-MB-231 was over 50 µM. In addition, the IC50 at 72 h in series [1] was over 50 µM.
Regarding `CC(=O)c1nc(C(=O)N(C)C)cc2c1[nH]c1ccccc12`, the IC50 in the series with MDA-MB-231 is over 50 µM. Moreover, in series [1], the half-inhibitory concentration (IC50) at 72 h was over 50 µM.
`CC(=O)c1nc(C(=O)Nc2ccccc2)cc2c1[nH]c1ccccc12`: the IC50 in the series with MDA-MB-231 is over 50 µM. In series [1], the IC50 at 72 h was over 50 µM.
Take `O=C(NCCc1c[nH]c2ccccc12)c1cc2c([nH]c3ccccc32)c(C(=O)c2ccccc2Br)n1`: the IC50 with MDA-MB-231 was over 50 µM. The 50% inhibitory concentration (IC50) at 72 h in series [1] was over 50 µM.
Regarding `CCCN(CCC)C(=O)c1cc2c([nH]c3ccccc32)c(C(C)=O)n1`, in the series with MDA-MB-231, the IC50 was over 50 µM. In addition, the IC50 at 72 h in series [1] is over 50 µM.
Regarding `CCCCNC(=O)c1cc2c([nH]c3ccccc32)c(C(C)=O)n1`, in the series on MDA-MB-231, the IC50 was over 50 µM. Further, the IC50 at 72 h in series [1] is over 50 µM.
Take `CC(=O)c1nc(C(=O)O)cc2c1[nH]c1ccccc12`: the IC50 in the series on MDA-MB-231 is over 50 µM. Moreover, the IC50 at 72 h in series [1] is over 50 µM.
Regarding `CC(=O)c1nc(C(=O)NCc2ccc(C#N)cc2)cc2c1[nH]c1ccccc12`, in the series on MDA-MB-231, the IC50 is over 50 µM. Besides, the IC50 at 72 h in series [1] is over 50 µM.
For the molecule `CNC(=O)c1cc2c([nH]c3ccccc32)c(C(C)=O)n1`, the IC50 with MDA-MB-231 is over 50 µM. The IC50 at 72 h in series [1] is over 50 µM.
As to `CC(=O)c1nc(C(=O)NCCCc2c[nH]c3ccccc23)cc2c1[nH]c1ccccc12`, the IC50 in the series with MDA-MB-231 is over 50 µM. Also, the IC50 at 72 h in series [1] was over 50 µM.
Take `CC(=O)c1nc(C(=O)NCCc2ccc(O)cc2)cc2c1[nH]c1ccccc12`: in the series on MDA-MB-231, the concentration for half-maximal inhibition (IC50) is over 50 µM. In series [1], the IC50 at 72 h was over 50 µM.
For the molecule `O=C(NCCc1c[nH]c2ccccc12)c1cc2c([nH]c3ccccc32)c(C(=O)c2cccc(Br)c2)n1`, the IC50 with MDA-MB-231 was over 50 µM. Further, the IC50 at 72 h in series [1] was over 50 µM.
`COc1ccc(NC(=O)c2cc3c([nH]c4ccccc43)c(C(C)=O)n2)cc1`: the IC50 with MDA-MB-231 is over 50 µM. The IC50 at 72 h in series [1] was over 50 µM.
Consider `CC(=O)c1nc(C(=O)NCc2ccccc2)cc2c1[nH]c1ccccc12`, for which the IC50 with MDA-MB-231 was over 50 µM. In series [1], the IC50 at 72 h was over 50 µM.
Regarding `CC(=O)c1nc(C(=O)Nc2ccc(C(F)(F)F)cc2)cc2c1[nH]c1ccccc12`, the IC50 with MDA-MB-231 was over 50 µM. Also, the 50% inhibitory concentration (IC50) at 72 h in series [1] is over 50 µM.
On to `COc1ccc(CCNC(=O)c2cc3c([nH]c4ccccc43)c(C(C)=O)n2)cc1` [MARINACARBOLINE A], for which the IC50 with MDA-MB-231 is over 50 µM. Besides, the half-inhibitory concentration (IC50) at 72 h in series [1] was over 50 µM.
Consider `CC(=O)c1nc(C(=O)NCCc2ccccc2)cc2c1[nH]c1ccccc12`, for which the IC50 in the series on MDA-MB-231 was over 50 µM. Besides, the IC50 at 72 h in series [1] was over 50 µM.
